Measured values from PMC8344761 (Journal of Enzyme Inhibition and Medicinal Chemistry, 2021).

Legend:
A-Raf = target: T1, A-Raf (Homo sapiens, UniProt P10398); assay: Raf kinase assay (Kinase HotSpot, Reaction Biology Corp.); format: biochemical; details: fixed concentration 1 μM; mean of two independent experiments
T1 sequence (P10398 1-606): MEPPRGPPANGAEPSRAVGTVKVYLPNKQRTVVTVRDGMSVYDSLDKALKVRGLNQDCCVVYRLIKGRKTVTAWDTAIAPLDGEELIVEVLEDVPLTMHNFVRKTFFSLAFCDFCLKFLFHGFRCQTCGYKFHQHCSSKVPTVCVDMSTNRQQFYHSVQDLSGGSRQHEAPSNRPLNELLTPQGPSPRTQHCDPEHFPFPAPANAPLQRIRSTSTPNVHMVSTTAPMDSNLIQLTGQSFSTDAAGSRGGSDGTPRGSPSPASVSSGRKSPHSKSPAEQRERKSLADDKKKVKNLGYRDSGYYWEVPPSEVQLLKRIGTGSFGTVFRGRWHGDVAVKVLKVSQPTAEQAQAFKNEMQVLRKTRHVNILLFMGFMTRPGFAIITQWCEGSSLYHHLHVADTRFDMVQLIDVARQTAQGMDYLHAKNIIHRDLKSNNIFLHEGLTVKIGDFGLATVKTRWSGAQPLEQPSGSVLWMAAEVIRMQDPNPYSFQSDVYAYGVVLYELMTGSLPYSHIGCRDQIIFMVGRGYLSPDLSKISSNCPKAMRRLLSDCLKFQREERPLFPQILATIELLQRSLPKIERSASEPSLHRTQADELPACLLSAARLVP
Experimental: Compounds were delivered into each Raf reaction, followed ∼20 min later by addition of a mixture of ATP and [γ-^33P-ATP] (specific activity approx. 500 cpm/pmol, concentration as required) to a final concentration of 10 µM. […] Then, the reaction was spotted onto a P30 filtermat, and unbound phosphate was removed by washing three times for 5 min in 75 mM phosphoric acid and once in methanol prior to drying and scintillation counting. […] IC50 values and curve fits were obtained using Prism (GraphPad Software, La Jolla, CA).

B-Raf (V600E) = B-Raf (V600E) (Homo sapiens, UniProt P15056, V600E); assay: as above; format: biochemical; details: fixed concentration 1 μM; mean of two independent experiments; B-Raf (V599E)
Experimental: (§1) Compounds were delivered into each Raf reaction, followed ∼20 min later by addition of a mixture of ATP and [γ-^33P-ATP] (specific activity approx. 500 cpm/pmol, concentration as required) to a final concentration of 10 µM. After incubation for 40 min at 25 °C, the reaction was stopped by the addition of a 3% phosphoric acid solution. Then, the reaction was spotted onto a P30 filtermat, and unbound phosphate was removed by washing three times for 5 min in 75 mM phosphoric acid and once in methanol prior to drying and scintillation counting. […] IC50 values and curve fits were obtained using Prism (GraphPad Software, La Jolla, CA).

C-Raf = C-Raf (Homo sapiens, UniProt P04049); assay: as above; format: biochemical; details: fixed concentration 1 μM; mean of two independent experiments; read-out: Inhibition (%) C-Raf
Experimental: as §1

B-Raf = B-Raf (Homo sapiens, UniProt P15056); assay: as above; format: biochemical; details: fixed concentration 1 μM; mean of two independent experiments
Experimental: as §1

Sequence of B-Raf (P15056 whole entry): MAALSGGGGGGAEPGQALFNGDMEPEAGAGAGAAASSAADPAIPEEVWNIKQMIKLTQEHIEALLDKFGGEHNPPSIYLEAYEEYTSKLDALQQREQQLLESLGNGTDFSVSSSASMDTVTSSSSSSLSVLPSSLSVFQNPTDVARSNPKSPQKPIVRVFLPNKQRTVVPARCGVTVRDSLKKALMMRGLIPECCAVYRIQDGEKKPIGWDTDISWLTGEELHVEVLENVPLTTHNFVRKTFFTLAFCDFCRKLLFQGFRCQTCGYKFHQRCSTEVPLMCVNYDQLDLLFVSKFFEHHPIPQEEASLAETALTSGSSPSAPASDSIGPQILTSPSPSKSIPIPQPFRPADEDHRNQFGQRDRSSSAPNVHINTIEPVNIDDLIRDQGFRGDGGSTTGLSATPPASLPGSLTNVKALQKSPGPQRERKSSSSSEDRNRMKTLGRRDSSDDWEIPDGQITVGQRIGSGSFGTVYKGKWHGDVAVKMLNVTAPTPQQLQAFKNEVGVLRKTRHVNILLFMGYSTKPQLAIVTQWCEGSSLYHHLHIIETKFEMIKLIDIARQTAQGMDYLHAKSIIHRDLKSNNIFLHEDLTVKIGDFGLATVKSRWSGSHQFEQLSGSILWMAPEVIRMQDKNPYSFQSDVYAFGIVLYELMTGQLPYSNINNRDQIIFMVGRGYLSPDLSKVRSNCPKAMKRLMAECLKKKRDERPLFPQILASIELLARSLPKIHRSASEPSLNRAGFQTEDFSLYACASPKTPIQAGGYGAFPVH
Sequence of C-Raf (P04049 whole entry): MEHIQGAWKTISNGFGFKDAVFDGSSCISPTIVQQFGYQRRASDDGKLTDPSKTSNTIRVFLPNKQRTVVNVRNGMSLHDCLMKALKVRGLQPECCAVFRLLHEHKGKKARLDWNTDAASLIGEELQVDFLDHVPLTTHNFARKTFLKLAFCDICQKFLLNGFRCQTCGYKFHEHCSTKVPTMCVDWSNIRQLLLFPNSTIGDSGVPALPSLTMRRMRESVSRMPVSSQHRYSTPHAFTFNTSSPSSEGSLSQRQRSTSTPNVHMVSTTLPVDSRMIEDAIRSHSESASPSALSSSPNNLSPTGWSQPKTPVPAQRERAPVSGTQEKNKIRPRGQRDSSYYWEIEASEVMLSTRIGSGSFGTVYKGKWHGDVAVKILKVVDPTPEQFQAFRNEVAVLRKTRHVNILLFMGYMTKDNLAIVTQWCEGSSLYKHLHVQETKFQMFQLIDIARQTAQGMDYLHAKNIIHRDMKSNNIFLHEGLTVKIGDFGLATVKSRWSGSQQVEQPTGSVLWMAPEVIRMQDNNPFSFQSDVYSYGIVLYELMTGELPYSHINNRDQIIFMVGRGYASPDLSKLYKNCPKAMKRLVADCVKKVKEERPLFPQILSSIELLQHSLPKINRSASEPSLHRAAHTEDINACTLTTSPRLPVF
Sequence of B-Raf (V600E) (P15056 whole entry V600E): as the sequence (P15056 whole entry) above, with V600E counted along it

Row | SMILES | melting point [°C] | inhibition at 1 µM (A-Raf) [%] | inhibition at 1 µM (B-Raf (V600E)) [%] | inhibition at 1 µM (C-Raf) [%] | inhibition at 1 µM (B-Raf) [%]
1 | CNC(=O)c1cc(Oc2c(C)nc(N)c(C)c2C)ccn1 [Compound 3, 4-((6-Amino-2,4,5-trimethylpyridin-3-yl)oxy)-N-methylpicolinamide] | 193 | 17.6 | 9.4 | 0 | -15.4
2 | CNC(=O)c1cc(Oc2c(C)nc(NC(=O)Nc3ccc(Cl)cc3)c(C)c2C)ccn1 [Compound 5, 4-((6–(3-(4-Chlorophenyl)ureido)-2,4,5-trimethylpyridin-3-yl)oxy)-N-methylpicolinamide] | 248 | 70.2 | 69.4 | 83.1 | 63
3 | CNC(=O)c1cc(Oc2c(C)nc(NC(=O)Nc3ccccc3)c(C)c2C)ccn1 [Compound 7, N-Methyl-4-((2,4,5-trimethyl-6-(3-phenylureido)pyridin-3-yl)oxy)picolinamide] | 229 | 49.3 | 48 | 46.4 | 24.8
4 | CNC(=O)c1cc(Oc2c(C)nc(NC(=O)Nc3ccc(F)cc3)c(C)c2C)ccn1 [Compound 8, 4-((6-(3-(4-Fluorophenyl)ureido)-2,4,5-trimethylpyridin-3-yl)oxy)-N-methylpicolinamide] | 253 | 78.4 | 77.9 | 78.2 | 61.5
5 | CNC(=O)c1cc(Oc2c(C)nc(NC(=O)Nc3ccc(Br)cc3)c(C)c2C)ccn1 [Compound 9, 4-((6–(3-(4-Bromophenyl)ureido)-2,4,5-trimethylpyridin-3-yl)oxy)-N-methylpicolinamide] | 268 | 49.9 | 58.9 | 74.6 | 40.8
6 | CNC(=O)c1cc(Oc2c(C)nc(NC(=O)Nc3ccc([N+](=O)[O-])cc3)c(C)c2C)ccn1 [Compound 10, N-Methyl-4-((2,4,5-trimethyl-6-(3-(4-nitrophenyl)ureido)pyridin-3-yl)oxy)picolinamide] | 262 | 61.5 | 74.7 | 83.1 | 60.4
7 | CNC(=O)c1cc(Oc2c(C)nc(NC(=O)Nc3ccc(C(F)(F)F)cc3)c(C)c2C)ccn1 [Compound 11, N-Methyl-4-((2,4,5-trimethyl-6-(3-(4-(trifluoromethyl)phenyl)ureido)pyridin-3-yl)oxy)picolinamide] | 254 | 66.3 | 71.9 | 90.4 | 66.8
8 | CNC(=O)c1cc(Oc2c(C)nc(NC(=O)Nc3ccc(OC(F)(F)F)cc3)c(C)c2C)ccn1 [Compound 12, N-Methyl-4-((2,4,5-trimethyl-6-(3-(4-(trifluoromethoxy)phenyl)ureido)pyridin-3-yl)oxy)picolinamide] | 185 | 12.4 | 22.2 | 37.5 | 6.6
9 | CNC(=O)c1cc(Oc2c(C)nc(NC(=O)Nc3ccc(OC)cc3)c(C)c2C)ccn1 [Compound 13, 4-((6-(3-(4-Methoxyphenyl)ureido)-2,4,5-trimethylpyridin-3-yl)oxy)-N-methylpicolinamide] | 258 | 14.7 | 33.4 | 55.9 | 5.1
10 | CNC(=O)c1cc(Oc2c(C)nc(NC(=O)Nc3ccc(C)cc3)c(C)c2C)ccn1 [Compound 14, N-Methyl-4-((2,4,5-trimethyl-6-(3-(p-tolyl)ureido)pyridin-3-yl)oxy)picolinamide] | 247 | 51 | 62.2 | 73.6 | 44.5
11 | CNC(=O)c1cc(Oc2c(C)nc(NC(=O)Nc3ccc(C(C)C)cc3)c(C)c2C)ccn1 [Compound 15, 4-((6-(3-(4-Isopropylphenyl)ureido)-2,4,5-trimethylpyridin-3-yl)oxy)-N-methylpicolinamide] | 188 | 33.6 | 39 | 76.1 | 43.2
12 | CNC(=O)c1cc(Oc2c(C)nc(NC(=O)Nc3c(C)cccc3C(C)(C)C)c(C)c2C)ccn1 [Compound 16, 4-((6-(3-(2-(Tert-Butyl)-6-methylphenyl)ureido)-2,4,5-trimethylpyridin-3-yl)oxy)-N-methylpicolinamide] | 206 | 8.6 | 7.1 | -6.4 | -7.1
13 | CNC(=O)c1cc(Oc2c(C)nc(NC(=O)Nc3cccc4ccccc34)c(C)c2C)ccn1 [Compound 17, N-Methyl-4-((2,4,5-trimethyl-6-(3-(naphthalen-1-yl)ureido)pyridin-3-yl)oxy)picolinamide] | 266 | 10.2 | 10.1 | 7.1 | -6.8
14 | CNC(=O)c1cc(Oc2c(C)nc(NC(=O)NCc3ccccc3)c(C)c2C)ccn1 [Compound 18, 4-((6-(3-Benzylureido)-2,4,5-trimethylpyridin-3-yl)oxy)-N-methylpicolinamide] | 195 | 7.8 | 13.3 | – | -14.5
15 | CCCNC(=O)Nc1nc(C)c(Oc2ccnc(C(=O)NC)c2)c(C)c1C [Compound 19, N-Methyl-4-((2,4,5-trimethyl-6-(3-propylureido)pyridin-3-yl)oxy)picolinamide] | 207 | -5.1 | – | 1.7 | -9.2
16 | CNC(=O)c1cc(Oc2c(C)nc(NC(=O)NC3CC3)c(C)c2C)ccn1 [Compound 20, 4-((6-(3-Cyclopropylureido)-2,4,5-trimethylpyridin-3-yl)oxy)-N-methylpicolinamide] | 192 | 16.4 | 8.9 | -0.8 | -10
17 | CNC(=O)c1cc(Oc2c(C)nc(NC(=O)NC(=O)c3ccccc3)c(C)c2C)ccn1 [Compound 21, 4-((6-(3-Benzoylureido)-2,4,5-trimethylpyridin-3-yl)oxy)-N-methylpicolinamide] | 177 | 18.9 | 26.7 | 35.2 | 8.6
18 | CNC(=O)c1cc(Oc2c(C)nc(NC(=O)NS(=O)(=O)c3ccc(C)cc3)c(C)c2C)ccn1 [Compound 22, N-Methyl-4-((2,4,5-trimethyl-6-(3-tosylureido)pyridin-3-yl)oxy)picolinamide] | 187 | 9.4 | 2.6 | 5.7 | –
19 | CNC(=O)c1cc(Oc2c(C)nc(NC(=O)Nc3ccc(N)cc3)c(C)c2C)ccn1 [Compound 23, 4-((6-(3-(4-Aminophenyl)ureido)-2,4,5-trimethylpyridin-3-yl)oxy)-N-methylpicolinamide] | 205 | 11 | 11.6 | 6.7 | 0.3
20 | Cc1nc(NC(=O)Nc2ccc(Cl)c(C(F)(F)F)c2)c(C)c(C)c1OCc1ccccc1 [Compound 24, 1-(5-(Benzyloxy)-3,4,6-trimethylpyridin-2-yl)-3-(4-chloro-3-(trifluoromethyl)phenyl)urea] | 206 | 11.9 | 4.4 | -8.3 | -19.3
21 | Cc1nc(NC(=O)Nc2ccc(Cl)c(C(F)(F)F)c2)c(C)c(C)c1O [Compound 25, 1-(4-Chloro-3-(trifluoromethyl)phenyl)-3-(5-hydroxy-3,4,6-trimethylpyridin-2-yl)urea] | 242 | 7.9 | 8.7 | -7.7 | –
